# Results from patent US12172975B2, “1H-indazole carboxamides as receptor-interacting protein kinase 1 inhibitors (RIPK1)” (BRISTOL-MYERS SQUIBB COMPANY, priority 2018, dated 2024).
# Counter-ions that a name gives are not always drawn. Like-named read-outs stand apart in the source and are kept apart here.
# System: MLKL phosphorylation in HT29-L23 human colorectal adenocarcinoma cells
# Experiment: MLKL Phosphorylation High-Content Assay
# Assay type: cell-based
# Conditions: 6 h, necroptosis induced with TNFα, SMAC mimetic and Z-VAD, read-out: pMLKL (IC50)
# Protocol: MLKL Phosphorylation High-Content Assay
# HT29-L23 human colorectal adenocarcinoma cells were maintained in RPMI 1640 medium containing 10% heat-inactivated FBS, 1% Penicillin-Streptomycin and 10 mM HEPES. Cells were seeded at 2,000 cells/well in 384 well tissue culture-treated microplates (Greiner #781090-3B) and incubated at 37° C. (5% CO2/95% O2) for 2 d. […] (5% CO2/95% O2). Necroptopsis was induced using a mixture of human TNFα (35 ng/mL) (Peprotech #300-01A), SMAC mimetic (from US 2015/0322111 A1) (700 nM) and Z-VAD ([…]) (BD pharmingen #51-6936). Following 6 h incubation at 37° C. (5% CO2/95% O2), the cells were fixed with 4% formaldehyde (ACROS 11969-0010) for 15 min at rt, then permeabilized with phosphate buffered saline (PBS) containing 0.2% Triton-X-100 for 10 min. MLKL phosphorylation was detected using anti-MLKL (phospho S358) antibody (Abeam #ab 187091) (1:1000 dilution in Blocking Buffer [PBS supplemented with 0.1% BSA]) with ON incubation at 4° C. After washing three times in PBS, goat anti-rabbit Alexa-488 (1:1000 dilution) (Life Technologies, A11008) and Hoechst 33342 (Life Technologies, H3570) (1:2000 dilution) in Blocking Buffer were added for 1 h at rt.
# Following another three cycles of washes in PBS, the microplates were sealed, and cellular images were acquired in the Cellomics ArrayScan VTI high-content imager equipped with an X1 camera. Fluorescent images were taken using a 10× objective and the 386-23 BGRFRN_BGRFRN and 485-20 BGRFRN_BGRFRN filter sets, for nuclei and MLKL phosphorylation, respectively. The image sets were analyzed using the Compartmental Analysis Bioapplication software (Cellomics). The level of MLKL phosphorylation was quantified as MEAN_CircRingAvglntenRatio. The maximal inhibitory response was defined by the activity induced by Neels (CAS #: 852391-15-2, 6.25 μM). […] The data were fitted using the 4-parameter logistic equation to calculate the IC50 and Ymax values.
SMILES,IC50 (Homo sapiens),IC50
"[2H]C([2H])([2H])Oc1ncc(-c2ccc3c(C(=O)NC)n[nH]c3c2)cc1C(=O)N[C@@H](c1cc(OC(F)(F)F)ccc1F)C([2H])([2H])[2H] [Example 9, (R)-6-(5-((1-(2-fluoro-5-(trifluoromethoxy)phenyl)ethyl-2,2,2-d3)carbamoyl)-6-(methoxy-d3)pyridin-3-yl)-N-methyl-1H-indazole-3-carboxamide, TFA]",22 nM,
"CNC(=O)c1n[nH]c2cc(-c3cnc(OC)c(C(=O)NCCC(C)c4ccc(F)cc4)c3)ccc12 (stereo not drawn) [Example 41, 6-(5-{[3-(4-fluorophenyl)-butyl]carbamoyl}-6-methoxy-pyridin-3-yl)-N-methyl-1H-indazole-3-carboxamide]",0.6 nM,
"CNC(=O)c1n[nH]c2cc(-c3cnc(OC)c(C(=O)N[C@@H](C)CC(=O)OC(C)(C)C)c3)ccc12 [Example 139, tert-butyl (3S)-3-({2-methoxy-5-[3-(methylcarbamoyl)-1H-indazol-6-yl]pyridin-3-yl}-formamido)butanoate]",28 nM,
"[2H]C([2H])([2H])Oc1ncc(-c2ccc3c(C(=O)NC)n[nH]c3c2)cc1C(=O)N[C@@H](C)c1cc(C(F)(F)F)ccc1F [Example 32, 6-(5-{[(1S)-1-[2-fluoro-5-(trifluoromethyl)phenyl]ethyl]-carbamoyl}-6-(deutero)meth-oxypyridin-3-yl)-N-methyl-1H-indazole-3-carboxamide]",19 nM,
"CNC(=O)c1n[nH]c2cc(-c3cnc(OC)c(C(=O)NCCCC(=O)OC(C)(C)C)c3)ccc12 [Example 135, tert-butyl 4-({2-methoxy-5-[3-(methylcarbamoyl)-1H-indazol-6-yl]pyridin-3-yl}formamido)-butanoate]",200 nM,
"CNC(=O)c1n[nH]c2cc(-c3cnc(OC)c(C(=O)NCCC(O)c4ccc(F)c(F)c4)c3)ccc12 (stereo not drawn) [Example 39, 6-(5-{[3-(3,4-difluorophenyl)-3-hydroxypropyl]carbamoyl}-6-methoxypyridin-3-yl)-N-methyl-1H-indazole-3-carboxamide]",8 nM,
"CNC(=O)c1n[nH]c2cc(-c3cnc(OC)c(C(=O)NCc4ccccc4OC)c3)ccc12 [Example 58, 6-(6-methoxy-5-{[(2-methoxy-phenyl)methyl]carbamoyl}-pyridin-3-yl)-N-methyl-1H-indazole-3-carboxamide]",5.6 nM,
"CNC(=O)c1n[nH]c2cc(-c3cnc(OC)c(C(=O)NCC4CC4c4cccc(F)c4)c3)ccc12 (stereo not drawn) [Example 42, 6-[5-({[2-(3-fluorophenyl)cyclo-propyl]methyl}carbamoyl)-6-methoxypyridin-3-yl]-N-methyl-1H-indazole-3-carboxamide]",88 nM,
"CNC(=O)c1n[nH]c2cc(-c3cnc(OC)c(C(=O)NC[C@H]4C[C@@H]4c4ccc(F)cc4)c3)ccc12 [Example 43, 6-[5-({[(1S,2S)-2-(4-fluoro-phenyl)cyclopropyl]methyl}-carbamoyl)-6-methoxypyridin-3-yl]-N-methyl-1H-indazole-3-carboxamide]",,99 nM
"CNC(=O)c1n[nH]c2cc(-c3cnc(OC)c(C(=O)NCC(C)(C)C(=O)OC(C)(C)C)c3)cc(F)c12 [Example 144, tert-butyl 3-({5-[4-fluoro-3-(methylcarbamoyl)-1H-indazol-6-yl]-2-methoxy-pyridin-3-yl}formamido)-2,2-dimethylpropanoate]",100 nM,
"CNC(=O)c1[nH]nc2cc(-c3cnc(OC)c(C(=O)NC[C@@H]4C[C@H]4c4ccc(F)cc4)c3)ccc12 [Example 70, 6-[5-({[(1R,2R)-2-(4-fluoro-phenyl)cyclopropyl]methyl}-carbamoyl)-6-methoxypyridin-3-yl]-N-methyl-2H-indazole-3-carboxamide]",36 nM,
"[2H]C([2H])([2H])NC(=O)c1n[nH]c2cc(-c3cnc(OC([2H])([2H])[2H])c(C(=O)N[C@@H](C)c4cc(OC(F)(F)F)ccc4F)c3)ccc12 [Example 5, (S)-6-(5-((1-(2-fluoro-5-(trifluoromethoxy)phenyl)ethyl)carbamoyl)-6-(methoxy-d3)pyridin-3-yl)-N-(methyl-d3)-1H-indazole-3-carboxamide]",9 nM,
"COc1ncc(-c2ccc3c(C(=O)N[C@H](C)C4CC4)n[nH]c3c2)cc1C(=O)NCc1ccccc1OC(F)(F)F [Example 171, N-[(1R)-1-cyclopropylethyl]-6-[6-methoxy-5-({[2-(trifluoro-methoxy)phenyl]methyl}-carbamoyl)pyridin-3-yl]-1H-indazole-3-carboxamide]",120 nM,
"CNC(=O)c1n[nH]c2cc(-c3cnc(OC)c(C(=O)NCCC(O)c4ccc(OC)cc4)c3)ccc12 (stereo not drawn) [Example 38, 6-(5-{[3-hydroxy-3-(4-methoxy-phenyl)propyl]carbamoyl}-6-methoxypyridin-3-yl)-N-methyl-1H-indazole-3-carboxamide]",13 nM,
"[2H]C([2H])([2H])Oc1ncc(-c2ccc3c(C(=O)NC)n[nH]c3c2)cc1C(=O)N[C@@H](c1cc(C(F)(F)F)ccc1F)C([2H])([2H])[2H] [Example 4, (R)-6-(5-((1-(2-fluoro-5-(trifluoromethyl)phenyl)ethyl-2,2,2-d3)carbamoyl)-6-(methoxy-d3)pyridin-3-yl)-N-methyl-1H-indazole-3-carboxamide, TFA]",19 nM,
"CNC(=O)c1n[nH]c2cc(-c3cnc(OC)c(C(=O)NCCC(O)c4ccc(F)cc4)c3)ccc12 (stereo not drawn) [Example 40, 6-(5-{[3-(4-fluorophenyl)-3-hydroxypropyl]carbamoyl}-6-methoxypyridin-3-yl)-N-methyl-1H-indazole-3-carboxamide]",5.7 nM,
"CNC(=O)c1n[nH]c2cc(-c3cnc(OC)c(C(=O)NCC4CC4c4cccc(F)c4)c3)ccc12 (stereo not drawn) [Example 49, 6-[5-({[2-(3-fluorophenyl)-cyclopropyl]methyl}carbamoyl)-6-methoxypyridin-3-yl]-N-methyl-1H-indazole-3-carbox-amide]",,21 nM
"CNC(=O)c1n[nH]c2cc(-c3cnc(OC)c(C(=O)N[C@H]4CCN(C(=O)OC(C)(C)C)C4)c3)ccc12 [Example 136, tert-butyl (3S)-3-{2-methoxy-5-[3-(methylcarbamoyl)-1H-indazol-6-yl]pyridine-3-amido}-pyrrolidine-1-carboxylate]",480 nM,
"[2H]C([2H])([2H])Oc1ncc(-c2ccc3c(C(=O)NC4CC4)n[nH]c3c2)cc1C(=O)NC(C)c1cccc(OC(F)(F)F)c1 (stereo not drawn) [Example 197, N-cyclopropyl-6-[6-(deutero)-methoxy-5-({1-[3-(trifluorometh-oxy)phenyl]ethyl}carbamoyl)-pyridin-3-yl]-1H-indazole-3-carboxamide]",52 nM,
"CNC(=O)c1n[nH]c2cc(-c3cnc(OC)c(C(=O)N[C@H](C)c4cc(OC(F)(F)F)ccc4F)c3)ccc12 [Example 216, 6-(5-{[(1R)-1-[2-fluoro-5-(trifluoro-methoxy)phenyl](2,2,2-deutero)-ethyl]carbamoyl}-6-(deutero)meth-oxypyridin-3-yl)-N-(deutero)methyl-1H-indazole-3-carboxamide]",,30 nM
"[2H]C([2H])([2H])NC(=O)c1n[nH]c2cc(-c3cnc(OC([2H])([2H])[2H])c(C(=O)N[C@H](C)c4cc(OC(F)(F)F)ccc4F)c3)ccc12 [Example 218, 6-(5-{[(1R)-1-[2-fluoro-5-(trifluoro-methoxy)phenyl]ethyl]carbamoyl}-6-(deutero)methoxypyridin-3-yl)-N-(deutero)methyl-1H-indazole-3-carboxamide]",32 nM,
"CNC(=O)c1n[nH]c2cc(-c3cnc(OC)c(C(=O)NC(C)c4cccc(OC(F)(F)F)c4)c3)cc(F)c12 (stereo not drawn) [Example 147, 4-fluoro-6-[6-methoxy-5-({1-[3-(trifluoromethoxy)-phenyl]ethyl}carbamoyl)-pyridin-3-yl]-N-methyl-1H-indazole-3-carboxamide]",110 nM,
"[2H]C([2H])([2H])NC(=O)c1n[nH]c2cc(-c3cnc(OC([2H])([2H])[2H])c(C(=O)N[C@H](C)c4ccccc4C(F)(F)F)c3)ccc12 [Example 219, 6-[6-(deutero)methoxy-5-{[(1R)-1-[2-(trifluoromethyl)phenyl]ethyl]-carbamoyl}pyridin-3-yl]-N-(deutero)-methyl-1H-indazole-3-carboxamide]",18 nM,
"[2H]C([2H])([2H])Oc1ncc(-c2ccc3c(C(=O)NC)n[nH]c3c2)cc1C(=O)NC(C)c1ccccc1OC(F)(F)F (single isomer, unassigned) [Example 15, 6-(6-methoxyd3-5-((1-(2-(trifluoromethoxy)phenyl)ethyl)carbamoyl)pyridin-3-yl)-N-methyl-1H-indazole-3-carboxamide]",3.4 nM,
